Data from ChEMBL document CHEMBL1143925, “Deconstructing cytisine: The syntheses of (+/-)-cyfusine and (+/-)-cyclopropylcyfusine, fused ring analogs of cytisine” (Bioorg Med Chem Lett, 2008).

Legend:
[1] = molecular target: Neuronal acetylcholine receptor; alpha4/beta2 (Rattus norvegicus, UniProt P09483+P12390); experiment: Displacement of [3H]nicotine from alpha4beta2 nAChR in Sprague-Dawley rat brain membrane; assay type: cell membranes
[2] = molecular target: Neuronal acetylcholine receptor subunit alpha-7 (Rattus norvegicus, UniProt Q05941); experiment: Displacement of [125I]alpha-bungarotoxin from rat alpha7 nAChR in GH4C1 cells; assay type: cell-based, GH4-C1
Neuronal acetylcholine receptor subunit alpha-7, sequence (Q05941 whole entry): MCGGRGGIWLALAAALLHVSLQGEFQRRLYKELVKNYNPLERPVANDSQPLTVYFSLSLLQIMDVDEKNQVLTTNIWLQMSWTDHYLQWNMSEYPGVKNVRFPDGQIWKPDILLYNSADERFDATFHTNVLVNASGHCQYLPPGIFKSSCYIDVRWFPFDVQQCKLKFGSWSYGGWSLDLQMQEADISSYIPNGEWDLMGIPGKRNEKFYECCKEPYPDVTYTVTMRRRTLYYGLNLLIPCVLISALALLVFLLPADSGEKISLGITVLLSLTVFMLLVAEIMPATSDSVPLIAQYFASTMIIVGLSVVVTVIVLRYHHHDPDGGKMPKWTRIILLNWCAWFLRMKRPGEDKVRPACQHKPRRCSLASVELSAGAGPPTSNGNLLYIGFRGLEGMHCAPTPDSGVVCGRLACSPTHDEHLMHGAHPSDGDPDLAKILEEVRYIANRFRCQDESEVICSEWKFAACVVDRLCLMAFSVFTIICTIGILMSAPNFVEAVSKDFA

[3] = molecular target: Neuronal acetylcholine receptor; alpha3/beta4 (Homo sapiens, UniProt P30926+P32297); experiment: Displacement of [3H]epibatidine from human alpha3beta4 nAChR in IMR32 cells; assay type: cell-based, IMR-32
Neuronal acetylcholine receptor; alpha3/beta4, sequence (P30926 whole entry): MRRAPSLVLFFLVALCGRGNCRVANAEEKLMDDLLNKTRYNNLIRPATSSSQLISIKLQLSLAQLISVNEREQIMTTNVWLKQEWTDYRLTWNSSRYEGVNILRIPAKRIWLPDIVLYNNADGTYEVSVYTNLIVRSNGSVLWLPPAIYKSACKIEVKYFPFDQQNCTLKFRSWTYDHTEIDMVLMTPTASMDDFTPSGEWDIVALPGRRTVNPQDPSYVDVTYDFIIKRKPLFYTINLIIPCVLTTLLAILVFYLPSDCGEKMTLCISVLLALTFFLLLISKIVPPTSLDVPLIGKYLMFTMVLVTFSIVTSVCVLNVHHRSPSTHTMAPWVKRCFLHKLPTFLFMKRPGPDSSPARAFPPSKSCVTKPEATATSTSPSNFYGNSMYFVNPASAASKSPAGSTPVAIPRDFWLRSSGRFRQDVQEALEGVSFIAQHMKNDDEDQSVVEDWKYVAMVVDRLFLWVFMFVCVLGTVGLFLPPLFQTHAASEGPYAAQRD
Neuronal acetylcholine receptor; alpha3/beta4, sequence (P32297 whole entry): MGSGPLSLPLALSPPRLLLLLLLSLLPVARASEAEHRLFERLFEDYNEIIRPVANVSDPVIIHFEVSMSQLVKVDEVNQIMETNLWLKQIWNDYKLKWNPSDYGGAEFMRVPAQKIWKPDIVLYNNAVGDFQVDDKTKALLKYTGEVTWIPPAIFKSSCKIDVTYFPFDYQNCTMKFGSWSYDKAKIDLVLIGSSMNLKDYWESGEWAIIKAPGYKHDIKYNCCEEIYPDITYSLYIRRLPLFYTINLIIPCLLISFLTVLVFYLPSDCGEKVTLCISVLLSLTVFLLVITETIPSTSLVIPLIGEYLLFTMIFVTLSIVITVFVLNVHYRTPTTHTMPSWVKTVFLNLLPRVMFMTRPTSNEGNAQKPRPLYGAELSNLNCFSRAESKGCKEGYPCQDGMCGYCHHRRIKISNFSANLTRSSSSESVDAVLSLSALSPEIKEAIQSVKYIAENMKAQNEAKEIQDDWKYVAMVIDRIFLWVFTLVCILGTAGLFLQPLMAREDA

Neuronal acetylcholine receptor; alpha4/beta2, sequence (P09483 whole entry): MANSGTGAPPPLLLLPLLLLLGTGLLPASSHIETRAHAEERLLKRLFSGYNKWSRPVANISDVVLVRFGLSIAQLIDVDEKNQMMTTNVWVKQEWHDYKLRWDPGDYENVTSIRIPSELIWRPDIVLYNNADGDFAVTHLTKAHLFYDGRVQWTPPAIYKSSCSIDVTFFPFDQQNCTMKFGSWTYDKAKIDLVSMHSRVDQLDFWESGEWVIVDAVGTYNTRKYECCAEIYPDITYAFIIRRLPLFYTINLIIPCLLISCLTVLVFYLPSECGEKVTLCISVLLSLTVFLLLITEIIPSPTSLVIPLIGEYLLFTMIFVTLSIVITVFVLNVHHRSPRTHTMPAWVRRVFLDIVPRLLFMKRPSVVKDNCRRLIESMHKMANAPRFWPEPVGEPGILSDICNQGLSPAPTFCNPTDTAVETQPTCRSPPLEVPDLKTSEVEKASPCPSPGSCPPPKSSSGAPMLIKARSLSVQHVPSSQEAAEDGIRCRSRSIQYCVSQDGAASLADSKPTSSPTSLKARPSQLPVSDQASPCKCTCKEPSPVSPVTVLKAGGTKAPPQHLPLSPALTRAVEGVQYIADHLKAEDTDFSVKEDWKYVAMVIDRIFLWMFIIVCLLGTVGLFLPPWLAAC
Neuronal acetylcholine receptor; alpha4/beta2, sequence (P12390 whole entry): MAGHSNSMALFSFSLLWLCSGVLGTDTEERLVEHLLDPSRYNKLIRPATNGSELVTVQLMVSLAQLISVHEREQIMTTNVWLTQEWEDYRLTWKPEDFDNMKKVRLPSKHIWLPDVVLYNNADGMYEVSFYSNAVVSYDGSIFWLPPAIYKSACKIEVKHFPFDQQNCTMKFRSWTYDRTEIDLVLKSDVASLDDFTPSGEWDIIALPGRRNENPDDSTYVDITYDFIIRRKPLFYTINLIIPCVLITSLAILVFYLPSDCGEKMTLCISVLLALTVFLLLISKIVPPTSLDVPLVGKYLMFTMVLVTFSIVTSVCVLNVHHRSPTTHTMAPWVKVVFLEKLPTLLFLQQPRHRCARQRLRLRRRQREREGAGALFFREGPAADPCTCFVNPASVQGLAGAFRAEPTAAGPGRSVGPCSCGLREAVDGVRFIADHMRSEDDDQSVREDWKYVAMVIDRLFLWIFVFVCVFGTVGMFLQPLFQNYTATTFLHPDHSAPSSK

Row | Compound | Ki [1] [nM] | Ki [2] [nM] | Ki [3] [nM]
1 | O=c1cccc2n1CC13CNCC21C3 (racemic) [CYCLOPROPYLCYFUSINE] | 144 | > 500 | > 500
2 | O=c1cccc2n1CC1CNCC21 (racemic) [CYFUSINE] | 16 | > 500 | > 500
3 | O=c1cccc2n1C[C@@H]1CNC[C@H]2C1 [CYTISINICLINE] | 0.43 | 5820 | 1560
